Results from patent publication US6627659B1, “Methods of decreasing the effects of oxidative stress using N-acetylcysteine” (Zambon Group S.p.A., priority 1999, dated 2003).

Assays:
[1] = test system: NADPH oxidase activity in neutrophils; assay: AOPP-HSA-induced NADPH oxidase activity in neutrophils, lucigenin chemiluminescence; assay type: cell-based; conditions: neutrophils preincubated with various concentrations of NAC, AOPP-HSA 2 mg/ml, FIG. 2A
Description: (§1) Human serum albumin (HSA) was exposed to HOCl at a molar HSA/HOCl molar ratio of 1/60. The AOPP-HSA preparation was incubated 30 minutes at room temperature and then dialysed overnight against PBS. Neutrophils from the Ficoll gradient pellet were separated from erythrocytes by sedimentation in dextran. Residual erythrocytes were lysed by treating the cell pellet with lysis buffer containing ammonium chloride. Purified neutrophils were resuspended at a concentration of 5×10^6/ml in phenol-red free HBSS at pH 7.4 and preincubated with medium alone or various concentrations of NAC. The capacity of AOPP-HSA to activate monocyte or neutrophil oxygenation activities was measured by chemiluminescence using dimethylbiacridinium (lucigenin) for NADH oxidase activity or luminol for myeloperoxidase activity as chemoluminogenic substrates. One hundred microliters of monocyte suspension (2×10^5/ml) was automatically injected into the luminometer tubes containing 100 μl of HBSS (basal activity), or the tested preparations including: native HSA or AOPP-HSA at 2 mg/ml. Chemiluminescence production was measured in duplicate and luminescence intensity was expressed in counts/min integrated over a 40 minutes period.

[2] = test system: patients undergoing dialysis; conditions: oral administration; Atherosclerosis 120 (1996) 241-244; cited from earlier work
[3] = test system: NADPH oxidase activity in monocytes; assay: AOPP-HSA-induced NADPH oxidase activity in monocytes, lucigenin chemiluminescence; assay type: cell-based; conditions: AOPP-HSA 2 mg/ml, counts/min over 40 minutes, FIG. 2B
Description: (§2) Human serum albumin (HSA) was exposed to HOCl at a molar HSA/HOCl molar ratio of 1/60. The AOPP-HSA preparation was incubated 30 minutes at room temperature and then dialysed overnight against PBS. Isolation of monocytes was performed by an indirect magnetic labelling system which allows the magnetic depletion of non monocytes i.e., T cells, B cells, NK cells, dendritic cells and basophils from a mononuclear cell suspension (obtained by blood sedimentation on a Ficoll gradient) using a cocktail of CD3, CD7, CD19, CD45RA, CD56 and anti-IgE antibodies. Purified monocytes were resuspended at a concentration of 2.5×10^6/ml in phenol-red free Hank's balanced salt solution (HBSS). The capacity of AOPP-HSA to activate monocyte or neutrophil oxygenation activities was measured by chemiluminescence using dimethylbiacridinium (lucigenin) for NADH oxidase activity or luminol for myeloperoxidase activity as chemoluminogenic substrates. One hundred microliters of monocyte suspension (2×10^5/ml) was automatically injected into the luminometer tubes containing 100 μl of HBSS (basal activity), or the tested preparations including: native HSA or AOPP-HSA at 2 mg/ml. Chemiluminescence production was measured in duplicate and luminescence intensity was expressed in counts/min integrated over a 40 minutes period.

[4] = test system: myeloperoxidase activity in neutrophils; assay: AOPP-HSA-induced myeloperoxidase activity in neutrophils, luminol chemiluminescence; assay type: cell-based; conditions: neutrophils preincubated with various concentrations of NAC, AOPP-HSA 2 mg/ml, FIG. 1A
Description: as §1

[5] = test system: myeloperoxidase activity in monocytes; assay: AOPP-HSA-induced myeloperoxidase activity in monocytes, luminol chemiluminescence; assay type: cell-based; conditions: AOPP-HSA 2 mg/ml, counts/min over 40 minutes, FIG. 1B
Description: as §2

- inhibition of NADPH oxidase activity triggered by AOPP-HSA [3]: dose-dependent inhibition
- inhibition of myeloperoxidase activity triggered by AOPP-HSA [5]: dose-dependent inhibition
SMILES: CC(=O)N[C@@H](CS)C(=O)O [NAC, N-acetylcysteine]
- inhibition of NADPH oxidase activity triggered by AOPP-HSA [1]: dose-dependent inhibition
- efficacy in the treatment of patients undergoing dialysis [2]: without efficacy
- inhibition of myeloperoxidase activity triggered by AOPP-HSA [4]: dose-dependent inhibition
